{"source": "paper PMC3545969", "about": "“Mutagenicity and antimutagenicity of (−)-hinokinin a trypanosomicidal compound measured by Salmonella microsome and comet assays” (BMC Complementary and Alternative Medicine, 2012)", "key": {"V79 cells": {"test_system": "V79 cells", "experiment": "Comet assay, antigenotoxicity against DXR in V79 cells", "assay_type": "cell-based, Chinese hamster", "set-up": "Class 0 / Class 1 / Class 2 / Class 3: unit not given here", "conditions": "3 h", "protocol": "Chinese hamster lung fibroblasts (V79) were kindly supplied by Professor Cólus (Universidade Estadual de Londrina (UEL), Paraná, Brazil). Cells were maintained as monolayers in plastic culture flasks (25 cm^2) in HAM-F10 (Sigma-Aldrich) plus DMEM (Sigma-Aldrich, 1:1) culture medium supplemented with 10%; fetal bovine serum (Nutricell), antibiotics (0.01 mg mL^−1 streptomycin and 0.005 mg mL^−1 penicillin; Sigma-Aldrich) and 2.38 mg mL^−1 Hepes (Sigma-Aldrich), at 37°C in a BOD-type chamber. Under these conditions, the average cell cycle time was 12 h.\nHK was first dissolved in a mixture of methanol (100 μL) and distilled water (900 μL). The final concentration of methanol in the culture was 0.1%;. The choice of concentrations was based on the results of previous experiments with HK [12]. In the experiments, 3 × 10^5 cells (V79) were seeded into tissue-culture flasks, incubated for two cycles (24 h) in complete HAM-F10/DMEM medium, washed with phosphate buffer saline (PBS), and then subjected to one of the following treatments, in serum-free medium, for 3 h. To assess genotoxicity, the cells were treated with each concentration of HK alone, while for antigenotoxicity, they were treated with the mutagen DXR (0.3 μM) in combination with each HK concentration. Positive (DXR) and negative controls were also included in the test. At the end of the treatment, the cells were washed with ice-cold PBS and trypsinized with 200 μL trypsin. After 3 min, the cells were gently resuspended in complete medium and 20 μL of the cell suspension was immediately used for the test.\nThe procedures described by Singh et al. were adopted, with minor modifications, as described in detail by Speit and Hartmann and reviewed by Burlinson et al.. Briefly, a microscope slide was covered with a base layer of 1.5%; normal-melting agarose (Invitrogen) and 20 μL of the test cells suspended in 120 μL 0.5%; low-melting agarose (Invitrogen) at 37°C was then spread over the base layer. A coverslip was added and the agarose allowed to solidify at 4°C for 15 min. Next, the coverslip was gently removed and the slides were immersed in freshly prepared lysing solution consisting of 89 mL stock solution (2.5 M NaCl, 100 mM EDTA, 10 mM Tris, pH 10.0, and 1%; sodium lauryl sarcosine), 10 mL DMSO and 1 mL Triton X-100, pH 10.0, at 4°C, for at least 20 h, protected from light. At the end of this period, the slides were transferred to an electrophoresis chamber containing a high pH (>13.0) buffer (300 mM NaOH, 1 mM EDTA) and incubated at 4°C for 20 min to allow the DNA to unwind. A current of 25 V (1.0 V cm^−1, 300 mA) was applied for 20 min. The slides were then submerged in a neutralization buffer (0.4 M Tris - HCl, pH 7.5) for 15 min, dried at room temperature and fixed in 100%; ethanol for 10 min.\nThe slides were stained with 100 μL ethidium bromide (20 μg ml^−1) and covered with a coverslip. All the slides in the experiment were coded before analysis. The stained nucleoids were immediately evaluated at 1000x magnification under a Nikon fluorescence microscope fitted with a 515–560 nm excitation filter and a 590 nm barrier filter.\nFor each treatment, the extent and distribution of DNA damage indicated by the comet assay were evaluated by examining 100 randomly selected and non-overlapping cells on the slides (i.e. 300 nucleoids per treatment). For each slide, the cells were visually scored and allocated to one of four classes (0, 1, 2 and 3), according to tail size, as follows: class 0, undamaged, no tail; class 1, a short tail whose length was smaller than the diameter of the comet head (nucleus); class 2, tail length between 1 and 2 times the diameter of the head; and class 3, maximally damaged: a long tail measuring more than twice the diameter of the head. The few comets containing no head and those with almost all DNA in the tail, or with a very wide tail, were excluded from the analysis since they may arise from dead cells. […]"}, "[1]": {"test_system": "Salmonella typhimurium TA100"}, "[2]": {"conditions": "TA 100, + S9, HK 19.5 μg/plate + AFB1 0.5 μg/plate"}, "[3]": {"conditions": "TA 100, + S9, HK 39.0 μg/plate + AFB1 0.5 μg/plate"}, "[4]": {"conditions": "TA 100, + S9, HK 58.5 μg/plate + AFB1 0.5 μg/plate"}, "[5]": {"conditions": "TA 100, + S9, HK 78.0 μg/plate + AFB1 0.5 μg/plate"}, "[6]": {"conditions": "TA 100, + S9, HK […] + AFB1 0.5 μg/plate"}, "[7]": {"conditions": "TA 100, − S9, HK 19.5 μg/plate + SA 1.25 μg/plate"}, "[8]": {"conditions": "TA 100, − S9, HK 39.0 μg/plate + SA 1.25 μg/plate"}, "[9]": {"conditions": "TA 100, − S9, HK 58.5 μg/plate + SA 1.25 μg/plate"}, "[10]": {"conditions": "TA 100, − S9, HK 78.0 μg/plate + SA 1.25 μg/plate"}, "[11]": {"conditions": "TA 100, − S9, HK […] + SA 1.25 μg/plate"}}, "note": "Read-outs that look alike come from different tables or passages of the source. Marks after values point to notes of the source that are not given here."}
{"smiles": "O=C1OC[C@H](Cc2ccc3c(c2)OCO3)[C@H]1Cc1ccc2c(c1)OCO2", "note": "[HK, (−)-hinokinin]", "values": [{"measurement": "Class 0", "setting": "V79 cells; HK 0.5 μM + DXR 0.3 μM", "value": "73.0 ± 7.0"}, {"measurement": "Class 1", "setting": "V79 cells; HK 0.5 μM + DXR 0.3 μM", "value": "20.0 ± 7.5"}, {"measurement": "Class 2", "setting": "V79 cells; HK 0.5 μM + DXR 0.3 μM", "value": "4.6 ± 1.5"}, {"measurement": "Class 3", "setting": "V79 cells; HK 0.5 μM + DXR 0.3 μM", "value": "2.0 ± 2.0"}, {"measurement": "Reduction % (of DXR-induced DNA damage)", "setting": "V79 cells; HK 0.5 μM + DXR 0.3 μM", "value": 76.0, "unit": "%"}, {"measurement": "Score", "setting": "V79 cells; HK 0.5 μM + DXR 0.3 μM", "value": "36.0 ± 6.1^a,b"}, {"measurement": "Class 0", "setting": "V79 cells; HK 1.0 μM + DXR 0.3 μM", "value": "68.0 ± 2.0"}, {"measurement": "Class 1", "setting": "V79 cells; HK 1.0 μM + DXR 0.3 μM", "value": "20.6 ± 2.5"}, {"measurement": "Class 2", "setting": "V79 cells; HK 1.0 μM + DXR 0.3 μM", "value": "8.0 ± 2.0"}, {"measurement": "Class 3", "setting": "V79 cells; HK 1.0 μM + DXR 0.3 μM", "value": "3.3 ± 0.5"}, {"measurement": "Reduction % (of DXR-induced DNA damage)", "setting": "V79 cells; HK 1.0 μM + DXR 0.3 μM", "value": 60.8, "unit": "%"}, {"measurement": "Score", "setting": "V79 cells; HK 1.0 μM + DXR 0.3 μM", "value": "46.0 ± 3.0^a,b"}, {"measurement": "Class 0", "setting": "V79 cells; HK 2.0 μM + DXR 0.3 μM", "value": "65.0 ± 6.8"}, {"measurement": "Class 1", "setting": "V79 cells; HK 2.0 μM + DXR 0.3 μM", "value": "27.0 ± 6.6"}, {"measurement": "Class 2", "setting": "V79 cells; HK 2.0 μM + DXR 0.3 μM", "value": "4.3 ± 2.3"}, {"measurement": "Class 3", "setting": "V79 cells; HK 2.0 μM + DXR 0.3 μM", "value": "2.6 ± 1.6"}, {"measurement": "Reduction % (of DXR-induced DNA damage)", "setting": "V79 cells; HK 2.0 μM + DXR 0.3 μM", "value": 63.4, "unit": "%"}, {"measurement": "Score", "setting": "V79 cells; HK 2.0 μM + DXR 0.3 μM", "value": "44.3 ± 9.2^a,b"}, {"measurement": "Class 0", "setting": "V79 cells; HK 32 μM + DXR 0.3 μM", "value": "35.0 ± 5.0"}, {"measurement": "Class 1", "setting": "V79 cells; HK 32 μM + DXR 0.3 μM", "value": "33.0 ± 3.0"}, {"measurement": "Class 2", "setting": "V79 cells; HK 32 μM + DXR 0.3 μM", "value": "30.0 ± 4.1^b"}, {"measurement": "Class 3", "setting": "V79 cells; HK 32 μM + DXR 0.3 μM", "value": "1.0 ± 1.0"}, {"measurement": "Score", "setting": "V79 cells; HK 32 μM + DXR 0.3 μM", "value": "97.0 ± 10.0^a"}, {"measurement": "Class 0", "setting": "V79 cells; HK 64 μM + DXR 0.3 μM", "value": "32.0 ± 6.1"}, {"measurement": "Class 1", "setting": "V79 cells; HK 64 μM + DXR 0.3 μM", "value": "39.0 ± 3.7"}, {"measurement": "Class 2", "setting": "V79 cells; HK 64 μM + DXR 0.3 μM", "value": "26.0 ± 2.0"}, {"measurement": "Class 3", "setting": "V79 cells; HK 64 μM + DXR 0.3 μM", "value": "2.0 ± 2.0"}, {"measurement": "Score", "setting": "V79 cells; HK 64 μM + DXR 0.3 μM", "value": "97.0 ± 10.0^a"}, {"measurement": "Class 0", "setting": "V79 cells; HK […] + DXR 0.3 μM", "value": "28.0 ± 6.6"}, {"measurement": "Class 1", "setting": "V79 cells; HK […] + DXR 0.3 μM", "value": "40.0 ± 1.0"}, {"measurement": "Class 2", "setting": "V79 cells; HK […] + DXR 0.3 μM", "value": "29.0 ± 5.2^b"}, {"measurement": "Class 3", "setting": "V79 cells; HK […] + DXR 0.3 μM", "value": "3.0 ± 2.5"}, {"measurement": "Score", "setting": "V79 cells; HK […] + DXR 0.3 μM", "value": "106.0 ± 16.0^a"}, {"measurement": "% inhibition", "setting": "[1]; [2]", "value": "45*** %"}, {"measurement": "Number of revertants(M ± SD)/ plate", "setting": "[1]; [2]", "value": "976 + 18 revertants/plate"}, {"measurement": "% inhibition", "setting": "[1]; [3]", "value": "47*** %"}, {"measurement": "Number of revertants(M ± SD)/ plate", "setting": "[1]; [3]", "value": "943 + 11 revertants/plate"}, {"measurement": "% inhibition", "setting": "[1]; [4]", "value": "71*** %"}, {"measurement": "Number of revertants(M ± SD)/ plate", "setting": "[1]; [4]", "value": "612 + 33 revertants/plate"}, {"measurement": "% inhibition", "setting": "[1]; [5]", "value": "89*** %"}, {"measurement": "Number of revertants(M ± SD)/ plate", "setting": "[1]; [5]", "value": "354 + 22 revertants/plate"}, {"measurement": "% inhibition", "setting": "[1]; [6]", "value": "30** %"}, {"measurement": "Number of revertants(M ± SD)/ plate", "setting": "[1]; [6]", "value": "1183 + 30 revertants/plate"}, {"measurement": "effect on mutation induced by AFB1", "setting": "[1]; TA100, +S9", "value": "did inhibit mutation induced by the alkylating agent AFB1"}, {"measurement": "effect on mutagenesis induced by SA", "setting": "[1]; TA100, absence of metabolic activation", "value": "did not reduce mutagenesis"}, {"measurement": "% inhibition", "setting": "[1]; [7]", "value": "9* %"}, {"measurement": "Number of revertants(M ± SD)/ plate", "setting": "[1]; [7]", "value": "1112 + 34 revertants/plate"}, {"measurement": "% inhibition", "setting": "[1]; [8]", "value": "5* %"}, {"measurement": "Number of revertants(M ± SD)/ plate", "setting": "[1]; [8]", "value": "1169 + 32 revertants/plate"}, {"measurement": "% inhibition", "setting": "[1]; [9]", "value": "7* %"}, {"measurement": "Number of revertants(M ± SD)/ plate", "setting": "[1]; [9]", "value": "1145 + 16 revertants/plate"}, {"measurement": "% inhibition", "setting": "[1]; [10]", "value": "3* %"}, {"measurement": "Number of revertants(M ± SD)/ plate", "setting": "[1]; [10]", "value": "1181 + 41 revertants/plate"}, {"measurement": "% inhibition", "setting": "[1]; [11]", "value": "7* %"}, {"measurement": "Number of revertants(M ± SD)/ plate", "setting": "[1]; [11]", "value": "1139 + 20 revertants/plate"}]}
